Tested on: patients with PH post-LVAD implantation
Assay: Phase 2 study in PH post-LVAD implantation: adverse events (Safety Set)
Format: in vivo
Experimental: This is a double-blind, placebo-controlled, multicenter, parallel-group Phase 2 study assessing the efficacy and safety of macitentan in PH post-LVAD implantation. Approximately 57 adult patients with PH post-LVAD implantation were randomized (1:1) to receive either macitentan 10 mg, or matching placebo, once daily orally.
• Treatment-emergent AEs up to 30 days after treatment discontinuation. • AEs leading to premature discontinuation of treatment. • Death up to 30 days after treatment discontinuation. • Treatment-emergent SAEs up to 30 days after treatment discontinuation. • Change from Baseline to EOT in vital signs. • Occurrence of liver function test (ALT and/or AST) abnormality (≥3×ULN; ≥3 and <5×ULN; ≥5 and <8×ULN; ≥8×ULN) up to EOT. • Occurrence of ALT and/or AST abnormality ≥3×ULN associated with bilirubin ≥2×ULN up to EOT. • Proportion of patients with treatment-emergent hemoglobin abnormality (<10.0 g/dL, and <8.0 g/dL) as compared to Baseline up to EOT. • Treatment-emergent marked laboratory abnormalities up to EOT.
An AE is any adverse change, i.e., any unfavorable and unintended sign, including an abnormal laboratory finding, symptom, or disease that occurs in a patient. AEs include: • Exacerbation of a pre-existing disease. • Increase in frequency or intensity of a pre-existing episodic disease or medical condition. • Disease or medical condition detected or diagnosed even though it may have been present prior to the start of the treatment. • Continuous persistent disease or symptoms present at treatment start that worsen following the start. • Abnormal assessments, e.g., change on physical examination, ECG findings, if they represent a clinically significant finding that was not present at treatment start or worsened during the course of the treatment. • Laboratory test abnormalities if they represent a clinically significant finding, symptomatic or not, which was not present at treatment start or worsened during the course of the treatment or led to dose reduction, interruption or permanent discontinuation of treatment.
A treatment-emergent AE is any AE temporally associated with the use of treatment (from treatment initiation until 30 days after treatment discontinuation). Overdose, misuse, and abuse of the treatment may be considered an AE.
The intensity of clinical AEs is graded on a three-point scale-mild, moderate, severe. The three categories of intensity are defined as follows: • Mild: The event may be noticeable to the patient. […] Performance of daily activities may be influenced, and intervention may be needed. • Severe: The event may cause noticeable discomfort, and usually interferes with daily activities. The patient may not be able to continue, and treatment or intervention is usually needed.
An SAE is defined by the ICH guidelines as any AE fulfilling at least one of the following criteria: • Fatal. • Life-threatening: refers to an event in which the patient was at risk of death at the time of the event.
Safety Set (SS): The SS includes all patients receiving at least one dose of drug in the treatment period.
A treatment-emergent AE is any AE temporally associated with the use of a treatment. The number and percentage of patients experiencing treatment-emergent AEs and SAEs at least once are tabulated by treatment group and by: • MedDRA SOC and individual preferred term within each SOC, in descending order of incidence. • Frequency of patients with events coded with the same preferred term, in descending order of incidence.

[1] = AEs leading to treatment discontinuation, SS, N = 28
[2] = SMQs for anemia, hypotension, edema/fluid retention, 10 mg once daily, N = 28
[3] = frequently reported AEs, SS, N = 28
[4] = treatment-emergent, 10 mg once daily, N = 28

CCCNS(=O)(=O)Nc1ncnc(OCCOc2ncc(Br)cn2)c1-c1ccc(Br)cc1 [Macitentan, propylsulfamic acid [5-(4-bromo-phenyl)-6-[2-(5-bromo-pyrimidin-2-yloxy)-ethoxy]-pyrimidin-4-yl]-amide]
26: Any Adverse Event, number of patients [4]
(32.1) %: Any Severe Adverse Event, percent of patients [4]
(10.7) %: Acute kidney injury, percent of patients [3] | Cystatin C increased, percent of patients [3] | Hyperkalaemia, percent of patients [3] | Hypotension, percent of patients [3] | Anticoagulation drug level below therapeutic level, percent of patients (serious AEs, N = 28)
(3.6) %: Ventricular tachycardia, percent of patients [3] | Any Adverse Event With Outcome of Death, percent of patients [4]
favorable safety profile: safety profile in words (post-LVAD implantation patients, 10 mg once daily)
3.6%: Acute kidney injury, percent of patients [1] | Blood alkaline phosphatase increased, percent of patients [1] | Blood bilirubin increased, percent of patients [1] | Cardiac disorders, percent of patients [1] | Cerebral haemorrhage, percent of patients [1] | General disorders and administration site conditions, percent of patients [1] | International normalised ratio increased, percent of patients [1] | Investigations, percent of patients [1] | Liver function test increased, percent of patients [1] | Nervous system disorders, percent of patients [1] | Oedema peripheral, percent of patients [1] | Renal and urinary disorders, percent of patients [1] | Right ventricular failure, percent of patients [1]
(57.1) %: Any Serious Adverse Event, percent of patients [4]
(92.9) %: Any Adverse Event, percent of patients [4]
2: Any Treatment-Related Adverse Event Leading to Treatment Discontinuation, number of patients (10 mg once daily, N = 28) | Vomiting, number of patients [3] | Acute kidney injury, number of patients (serious AEs, N = 28) | Pleural effusion, number of patients (serious AEs, N = 28) | Right ventricular failure, number of patients (serious AEs, N = 28) | Septic shock, number of patients (serious AEs, N = 28) | Any Severe Treatment-Related Adverse Event, number of patients [4] | Any Treatment-Related Serious Adverse Event, number of patients [4]
1: Acute kidney injury, number of patients [1] | Blood alkaline phosphatase increased, number of patients [1] | Blood bilirubin increased, number of patients [1] | Cardiac disorders, number of patients [1] | Cerebral haemorrhage, number of patients [1] | General disorders and administration site conditions, number of patients [1] | International normalised ratio increased, number of patients [1] | Investigations, number of patients [1] | Liver function test increased, number of patients [1] | Nervous system disorders, number of patients [1] | Oedema peripheral, number of patients [1] | Renal and urinary disorders, number of patients [1] | Right ventricular failure, number of patients [1] | Ventricular tachycardia, number of patients [3] | Any Adverse Event With Outcome of Death, number of patients [4]
(35.7) %: Any Events of Interest, percent of patients [2]
(14.3) %: Anticoagulation drug level below therapeutic, percent of patients [3] | Dizziness, percent of patients [3] | Dyspnoea, percent of patients [3] | Fatigue, percent of patients [3] | N-terminal prohormone brain natriuretic peptide increased, percent of patients [3] | Oedema peripheral, percent of patients [3]
3: Acute kidney injury, number of patients [3] | Cystatin C increased, number of patients [3] | Hyperkalaemia, number of patients [3] | Hypotension, number of patients [3] | Anticoagulation drug level below therapeutic level, number of patients (serious AEs, N = 28)
well tolerated: tolerability in words (early post-LVAD population, 10 mg once daily)
10: Any Events of Interest, number of patients [2]
(21.4) %: Any Treatment-Related Adverse Event, percent of patients [4]
6: Any Treatment-Related Adverse Event, number of patients [4]
(7.1) %: Any Treatment-Related Adverse Event Leading to Treatment Discontinuation, percent of patients (10 mg once daily, N = 28) | Vomiting, percent of patients [3] | Acute kidney injury, percent of patients (serious AEs, N = 28) | Pleural effusion, percent of patients (serious AEs, N = 28) | Right ventricular failure, percent of patients (serious AEs, N = 28) | Septic shock, percent of patients (serious AEs, N = 28) | Any Severe Treatment-Related Adverse Event, percent of patients [4] | Any Treatment-Related Serious Adverse Event, percent of patients [4]
9: Any Severe Adverse Event, number of patients [4]
16: Any Serious Adverse Event, number of patients [4]
4: Any Adverse Event Leading to Treatment Discontinuation, number of patients (SS, 10 mg once daily, N = 28) | Anticoagulation drug level below therapeutic, number of patients [3] | Dizziness, number of patients [3] | Dyspnoea, number of patients [3] | Fatigue, number of patients [3] | N-terminal prohormone brain natriuretic peptide increased, number of patients [3] | Oedema peripheral, number of patients [3]
0: Anaemia, number of patients [1] | Blood and lymphatic system disorders, number of patients [1] | Haemolysis, number of patients [1] | Haemorrhagic stroke, number of patients [1] | Complication associated with device, number of patients [3] | Dehydration, number of patients [3] | Fall, number of patients [3] | Complication associated with device, number of patients (serious AEs, N = 28) | Dehydration, number of patients (serious AEs, N = 28) | Gastrointestinal hemorrhage, number of patients (serious AEs, N = 28) | Ventricular tachycardia, number of patients (serious AEs, N = 28)

Source: patent US20240299384A1, “METHODS FOR TREATING PULMONARY HYPERTENSION IN PATIENTS WITH LEFT VENTRICULAR ASSIST DEVICE IMPLANTATION” (ACTELION PHARMACEUTICALS LTD, priority 2021, published 2024)
